Here are results for 28 molecules from the SangsterLogP compilation.

In turn, `CCCCOCCOCCOC(C)=O` displayed a logP of 1.77.
In the case of `CCCCC(CC)COC(=O)CCCCC(=O)OCC(CC)CCCC` (stereo not drawn) it was 8.1.
To `CC[C@H](C)N` belongs 0.6; to `CC(=O)OCCl`, 0.75.
Turning to `OCCOCCOCCO`, the lipophilicity (logP) was -1.2.
`CC(C)C=O` returned a log partition coefficient (logP) of 0.4.
As to `C/C=C/C=O`, the logP stood at 0.6.
To `CCOCCOC(C)=O` belongs 0.24.
To `C=CC(=O)OCC` belongs 1.2; to `CCCCOC(=O)c1ccccc1C(=O)OCc1ccccc1`, 4.5.
Molecule `CC(C)CC=O` registered a logP of 1.3.
To `O=P(OCCCl)(OCCCl)OCCCl` belongs 0.5; to `CCCCCOC(C)=O`, 2; to `COCCOCCOCCO`, -0.7.
In the case of `C1=CC2C3C=CC(C3)C2C1` (stereo not drawn), the lipophilicity (logP) came to 2.9.
To `OCCS` belongs -0.06; to `Cc1ccc(S(=O)(=O)O)cc1`, 0.09.
In the case of `CCCCCCCCCCO` it was 4.2; in that of `OCC#CCO`, -0.73; in that of `OCCOCCO`, -1.98.
In turn, `C=CCCl` yielded a logP of 3.
`O=C1OC(=O)c2ccccc21` yielded a logP of 0.7.
In the case of `COS(=O)(=O)OC` it was 0.03; in that of `NCCNCCN`, -1.3; in that of `C=CC(=O)O`, 0.31.
`C=C(C)CCl` returned a logP of 1.98.
Turning to `COCCOCCO`, the lipophilicity (logP) is -1.1.
`CC(C)C(=O)O` returned a logP of 0.88.

A word on the logP: it is a log measure of how a compound divides between an organic and an aqueous phase. A higher logP goes with a more lipophilic compound.
